Experimental data as given in ChEMBL document CHEMBL3596163, “Discovery of imidazo[1,5-a]pyridines and -pyrimidines as potent and selective RORc inverse agonists” (Bioorg Med Chem Lett, 2015).

Columns and labels:
[1] = Lipophilicity, log D of the compound at pH 7.4; assay type: physicochemical; conditions: buffer
[2] = target: T1, Nuclear receptor ROR-gamma (Homo sapiens, UniProt P51449); test: Inverse agonist activity at N-terminal 6xHis-tagged human RORc ligand binding domain (241 to 486) expressed in bacterial expression system assessed as inhibition of SRC1 co-activator peptide recruitment after 3 hrs by TR-FRET analysis; assay type: functional
T1 sequence (P51449 whole entry): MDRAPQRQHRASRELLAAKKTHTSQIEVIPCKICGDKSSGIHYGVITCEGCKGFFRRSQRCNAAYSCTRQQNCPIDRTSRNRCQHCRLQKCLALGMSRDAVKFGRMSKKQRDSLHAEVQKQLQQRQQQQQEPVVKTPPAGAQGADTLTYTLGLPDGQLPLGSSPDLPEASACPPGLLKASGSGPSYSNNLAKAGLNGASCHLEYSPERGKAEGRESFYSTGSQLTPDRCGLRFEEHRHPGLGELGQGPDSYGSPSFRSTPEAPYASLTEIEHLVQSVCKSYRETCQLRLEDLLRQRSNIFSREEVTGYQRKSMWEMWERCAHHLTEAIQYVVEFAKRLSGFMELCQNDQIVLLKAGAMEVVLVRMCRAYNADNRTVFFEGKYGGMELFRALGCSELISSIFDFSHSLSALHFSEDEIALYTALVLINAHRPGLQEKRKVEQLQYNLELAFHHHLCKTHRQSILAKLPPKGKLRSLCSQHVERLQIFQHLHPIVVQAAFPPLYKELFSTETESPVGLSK

[3] = target: T2, Peroxisome proliferator-activated receptor gamma (Homo sapiens, UniProt P37231); test: Displacement of fluormone PPARgamma green from GST-tagged human PPARgamma-LBD after 2 hrs by fluorescence polarization assay
T2 sequence (P37231 whole entry): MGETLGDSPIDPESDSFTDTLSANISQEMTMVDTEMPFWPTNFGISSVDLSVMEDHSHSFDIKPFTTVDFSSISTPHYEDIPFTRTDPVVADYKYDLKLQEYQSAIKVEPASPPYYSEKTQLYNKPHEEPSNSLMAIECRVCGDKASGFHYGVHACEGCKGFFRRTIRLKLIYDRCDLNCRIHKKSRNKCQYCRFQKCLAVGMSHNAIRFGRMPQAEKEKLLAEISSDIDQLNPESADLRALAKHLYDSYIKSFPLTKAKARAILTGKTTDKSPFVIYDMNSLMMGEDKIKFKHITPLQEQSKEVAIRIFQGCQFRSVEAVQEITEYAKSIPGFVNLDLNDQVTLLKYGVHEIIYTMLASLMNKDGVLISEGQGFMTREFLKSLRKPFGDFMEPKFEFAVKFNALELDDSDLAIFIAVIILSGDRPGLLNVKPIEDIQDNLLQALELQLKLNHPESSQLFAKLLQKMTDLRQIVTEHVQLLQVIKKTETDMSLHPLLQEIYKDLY

Compound | logD [1] | EC50 [2] | IC50 [3]
O=C(c1c(Cl)cccc1C(F)(F)F)c1nc([C@H]2CC[C@H](C(=O)O)CC2)c2ccccn12 | 1.3 | 0.4 µM | –
COc1cccc(Cl)c1C(=O)c1nc(-c2ccc(C(=O)O)cc2F)c2n1CCCC2 | 0.8 | 0.24 µM | 5.5 µM
O=C(c1c(Cl)cccc1C(F)(F)F)c1nc(N2CC[C@H](C(=O)O)[C@@H](O)C2)c2ccccn12 (stereo in doubt) | 0.3 | 0.44 µM | > 10 µM
O=C(O)c1ccc(-c2nc(C(=O)c3c(F)cccc3Cl)n3c2CCCC3)c(F)c1 | 1.2 | 0.19 µM | 2.9 µM
O=C(O)c1ccc(-n2nc(C(=O)c3c(Cl)cccc3C(F)(F)F)c3c2CCCC3)cc1 | -0.3 | > 10 µM | –
O=C(O)c1ccc(-c2cn3c(n2)C(c2c(Cl)cccc2C(F)(F)F)OCC3)cc1 (centres undefined) | – | > 10 µM | –
O=C(O)c1ccc(-c2nc(C(=O)c3c(Cl)cccc3C(F)(F)F)n3c2CCCC3)cc1 | 0.8 | 0.058 µM | 2.1 µM
O=C(O)c1ccc(-c2nc(C(=O)c3c(Cl)cccc3C(F)(F)F)n3cccnc23)cc1 | 0.3 | 0.084 µM | 4.2 µM
O=C(O)c1ccc(-c2nn(C(=O)c3c(Cl)cccc3C(F)(F)F)c3ccccc23)cc1 | 2.9 | – | –
O=C(c1c(Cl)cccc1C(F)(F)F)c1nc(C2=CCC(C(=O)O)CC2)c2ccccn12 (centres undefined) | 1.5 | 0.1 µM | 1.8 µM
O=C(c1c(Cl)cccc1C(F)(F)F)c1nc(N2CCC(O)(C(=O)O)CC2)c2ccccn12 | – | 6.8 µM | –

Other lines, results leading:

logD [1] | EC50 [2] | IC50 [3] | Compound
0.7 | 0.25 µM | 7.7 µM | N#Cc1cccc(Cl)c1C(=O)c1nc(-c2ccc(C(=O)O)cc2F)c2n1CCCC2
1.4 | 0.84 µM | 5.6 µM | O=C(O)c1ccc(-c2nc(C(=O)c3ccccc3C(F)(F)F)n3c2CCCC3)c(F)c1
– | 0.67 µM | 9.1 µM | COc1cccc(C(F)(F)F)c1C(=O)c1nc(-c2ccc(C(=O)O)cc2F)c2n1CCCC2
0.4 | 0.54 µM | > 10 µM | O=C(c1c(Cl)cccc1C(F)(F)F)c1nc(N2CCC(C(=O)O)CC2)c2ccccn12
0.7 | 0.22 µM | > 10 µM | N#Cc1cccc(C(F)(F)F)c1C(=O)c1nc(-c2ccc(C(=O)O)cc2F)c2n1CCCC2
1.5 | 0.077 µM | 1.1 µM | O=C(O)c1ccc(-c2nc(C(=O)c3c(Cl)cccc3Cl)n3c2CCCC3)c(F)c1
0.4 | 0.097 µM | > 10 µM | O=C(c1c(Cl)cccc1C(F)(F)F)c1nc(N2CC[C@@H](C(=O)O)[C@H](O)C2)c2ccccn12 (stereo in doubt)
1.8 | 4.3 µM | – | O=C(c1c(Cl)cccc1C(F)(F)F)c1nc([C@H]2CC[C@@H](C(=O)O)CC2)c2ccccn12
0.7 | 2.6 µM | – | O=C(O)c1ccc(-c2nc(C(=O)c3c(Cl)cccc3C(F)(F)F)n3ccncc23)cc1
